Measured values as given in PMC9134009 (RSC Advances, 2021).

System: human gastric cancer cell line SGC7901
Experiment: CCK-8 in vitro cytotoxicity test, SGC7901
Assay type: cell-based
Details: read-out: IC50 (nM) SGC7901; CCK-8, 72 h exposure, n = 3

## N.N.[Cl][Pt][Cl] [cisplatin]
  IC50: 927 ± 77.6 nM
